{"source": "patent US20230062537A1", "about": "“Therapy of oxygen pulses for treating neurodegenerative disorders such as Parkinson Disease (PD), Alzheimer’s Disease (AD), Amiotrophic Lateral Sclerosis (ALS) or Motor Neuron Disease (MND) and other dementias, and Lymphedema, Arthritis and Depression” (priority 2021, published 2023)", "key": {"[1]": {"conditions": "for oxygen transported to the tissues: cardiac flow of 1 l/min", "text": "At sea level, (non humidified) room air contains 21% O2 which translates into an oxygen partial pressure of 160 mm Hg [0.21*760 mm Hg)]. However, the body mean tissue oxygen levels are much lower than this level. Alveolar air contains 14% oxygen (106 mm Hg), arterial oxygen concentration is 12% (91 mm Hg), venous oxygen levels are 5.3% (40 mm Hg), and mean tissue intracellular oxygen concentration is only 3% (22 mm Hg (Guyton, and Hall, 1996). Furthermore, direct microelectrode measurements of tissue O2 reveal that parts of the brain normally experience O2 levels considerably lower than total body mean tissue oxygen levels, reflecting the high oxygen utilization in brain. These studies also highlight considerable regional variation in average brain oxygen levels (Table 1) that have been attributed to local differences in capillary density. Mean brain tissue oxygen concentration in adult rates is 1.5% (Silver and Erecinska, 1988), and mean fetal sheep brain oxygen tension has also been estimated at 1.6% (Koos and Power, 1987).\nIf we inspire air at normal pressure of 760 mm Hg (O221%) alveolar oxygen content will be 14% (106 mm Hg) and arterial oxygen content 12% (91 mm Hg). However arterial oxygen content includes oxygen content in the Hemoglobin plus oxygen absorbed in the plasma. (Mathews and Van Holde, 2002)\nOxygen content in the Hemoglobin (ml/dL)=Hb (g/dL)*% Sat.*[…]\nAt 100 mmHg oxygen pressure and 100% Hemoglobin saturation Oxygen content in the arterial blood is 20.7 ml/dL\nIf we consider a normal cardiac flow of 1 l/min, oxygen transported to the tissues would be […] or 0.924 mol-g of oxygen (5.57*10^23 molecules of oxygen/min.).\nIf we inspire oxygen enriched air of 31% O2, arterial pressure of oxygen would be (31/21)*100=147 mm Hg\nAlso oxygen content at the brain tissue will be:\nOxygen content in the arterial blood=Oxygen in Hemoglobin+Oxygen absorbed in the plasma\nIf we inspire oxygen of 95% O2, arterial pressure of oxygen would be (95/21)*100=452 mm Hg"}, "[2]": {"test_system": "PD, AD, ALS, Arthritis, Lymphedema, and Depression patients", "procedure": "In our therapy the oxygen pulses are administered in consonance with the advance of the neurodegenerative diseases (PD, AD, ALS, MS, Arthritis, Lymphedema and Depression) as described as follow: • a. At the beginning of the neurodegenerative disease with the apparition of the first symptoms using procedure 1 or 2 twice a day for 5 days. • b. When the neurodegenerative disease has been detected, with a medical diagnostic, using procedure 1 or 2 four times a day for 10 days. • c. With an advanced neurodegenerative disease using procedure 1 or 2 eight times a day for 10 days"}, "Arthritis": {"test_system": "Arthritis", "conditions": "method No 4", "experimental": "(§1) The pulse oxygen therapy as described therein for treating neurodegenerative diseases (PD, AD, ALS, MS, Arthritis, Lymphedema and Depression) to patients with mild, moderate, severe, or critical conditions may be applied as follow: • 1. […] Patients must have comfortable accommodation (temperature, illumination and sanitary conditions). • 2. As prophylactic treatment (elder patients and/or with chronic diseases) treat patients with 6 l/min oxygen flow for 60 min once a day during 5 days. • 3. As treatment for patients with mild disease (initial symptoms) treat patients with 6 l/min oxygen flow for 60 min once a day during 10 days. • 4. As treatment for patients with moderate disease treat patients with 6 l/min oxygen flow for 60 min twice a day during 10 days. • 5. As treatment for patients with severe disease treat patients with 6 l/min oxygen flow for 60 min four time a day during 10 days. • 6. As treatment for patients with critical disease treat patients with 6 l/min oxygen flow for 60 min every 3 hours during 10 days."}, "Depression": {"test_system": "Depression", "conditions": "method No 4", "experimental": "as §1"}, "Parkinson Disease": {"test_system": "Parkinson Disease", "experimental": "as §1"}, "Lymphedema": {"test_system": "Lymphedema", "conditions": "method No 4", "experimental": "as §1"}}, "note": "Like-named read-outs stand apart in the source and are kept apart here."}
{"smiles": "O=O", "note": "[oxygen]", "values": [{"measurement": "additional flow of oxygen", "setting": "[1]; 31% O2 inspired", "value": 0.15, "unit": "L/min"}, {"measurement": "increase of the oxygen transport to the tissues", "setting": "[1]; 31% O2 inspired", "value": 0.72, "unit": "%"}, {"measurement": "Oxygen content in the arterial blood", "setting": "[1]; 31% O2 inspired, 147 mm Hg", "value": 20.85, "unit": "ml/dL"}, {"measurement": "oxygen transported to the tissues", "setting": "[1]; 31% O2 inspired", "value": 20.85, "unit": "l Oxygen/min"}, {"measurement": "Oxygen at the brain level, Cortex (gray)", "setting": "[1]; 31% oxygen inspired", "value": "3.69-7.79 % O2"}, {"measurement": "Oxygen at the brain level, Cortex (white)", "setting": "[1]; 31% oxygen inspired", "value": "1.17-3.0 % O2"}, {"measurement": "Oxygen at the brain level, Hippocampus", "setting": "[1]; 31% oxygen inspired", "value": "3.8-5.7 % O2"}, {"measurement": "Oxygen at the brain level, Hypothalamus", "setting": "[1]; 31% oxygen inspired", "value": "2.0-3.0 % O2"}, {"measurement": "Oxygen at the brain level, Pons, fornix", "setting": "[1]; 31% oxygen inspired", "value": "0.14-0.58 % O2"}, {"measurement": "additional flow of oxygen", "setting": "[1]; 95% O2 inspired", "value": 1.4, "unit": "L/min"}, {"measurement": "increase of oxygen flow to the tissues", "setting": "[1]; 95% O2 inspired", "value": 6.76, "unit": "%"}, {"measurement": "Oxygen content in the arterial blood", "setting": "[1]; 95% O2 inspired, 452 mm Hg", "value": 21.80, "unit": "ml/dL"}, {"measurement": "oxygen transported to the tissues", "setting": "[1]; 95% O2 inspired", "value": 21.80, "unit": "l Oxygen/min"}, {"measurement": "Oxygen at the brain level, Cortex (gray)", "setting": "[1]; 95 % oxygen inspired", "value": "11.3-23.8 % O2"}, {"measurement": "Oxygen at the brain level, Cortex (white)", "setting": "[1]; 95 % oxygen inspired", "value": "3.58-9.18 % O2"}, {"measurement": "Oxygen at the brain level, Hippocampus", "setting": "[1]; 95 % oxygen inspired", "value": "11.6-17.4 % O2"}, {"measurement": "Oxygen at the brain level, Hypothalamus", "setting": "[1]; 95 % oxygen inspired", "value": "6.12-9.18 % O2"}, {"measurement": "Oxygen at the brain level, Pons, fornix", "setting": "[1]; 95 % oxygen inspired", "value": "0.42-1.77 % O2"}, {"measurement": "arterial pressure of oxygen", "setting": "[1]; oxygen enriched air of 31% O2 inspired", "value": 147, "unit": "mm Hg"}, {"measurement": "arterial pressure of oxygen", "setting": "[1]; oxygen of 95% O2 inspired", "value": 452, "unit": "mm Hg"}, {"measurement": "use of the therapy in patients", "setting": "[2]", "value": "satisfactory used"}, {"measurement": "deformation at follow-up", "setting": "Arthritis; after 12 months", "value": "no more deformation has been observed"}, {"measurement": "outcome after 10 days", "setting": "Arthritis; after 10 days", "value": "a notable recuperation takes place"}, {"measurement": "time to begin of recovery", "setting": "Arthritis; person, severe deformation in hands", "value": 5, "unit": "days"}, {"measurement": "Depression at follow-up", "setting": "Depression; after 11 months", "value": "no more Depression has been detected"}, {"measurement": "outcome after 10 days", "setting": "Depression; after 10 days", "value": "a notable recuperation takes place"}, {"measurement": "time to begin of recovery", "setting": "Depression; person, severe Depression", "value": 5, "unit": "days"}, {"measurement": "symptoms at follow-up", "setting": "Parkinson Disease; after 12 months, method No 4", "value": "no AD symptoms has developed"}, {"measurement": "time to recovery", "setting": "Parkinson Disease; patient, moderate conditions, method No 4: 6 l/min oxygen flow 60 min twice a day during 10 days", "value": 5, "unit": "days"}, {"measurement": "limbs inflammation at follow-up", "setting": "Lymphedema; after 11 months", "value": "no limbs inflammation has developed"}, {"measurement": "outcome after 10 days", "setting": "Lymphedema; after 10 days", "value": "a notable recuperation takes place"}, {"measurement": "time to begin of recovery", "setting": "Lymphedema; person, severe limbs inflammation after cancer radiotherapy", "value": 5, "unit": "days"}]}
